# Data published in patent publication US10933134B2, “Combination therapies for treatment of cancer” (priority 2017, dated 2021).
# Non-standard residues stand in square brackets, D forms with d. Residues, ends and D or L forms follow the SMILES beside them. *: point of attachment. dPhe(4-NHCONH2) = NC(=O)Nc1ccc(C[C@@H](N)C(=O)O)cc1; Dihydroorotyl(S) = O=C1C[C@@H](C(=O)*)NC(=O)N1; dPhe(4-Cl) = N[C@H](Cc1ccc(Cl)cc1)C(=O)O; Phe(4-NH2) = Nc1ccc(C[C@H](N)C(=O)O)cc1; d2Nal = N[C@H](Cc1ccc2ccccc2c1)C(=O)O; Lys(iPr) = CC(C)NCCCC[C@H](N)C(=O)O; d3Pal = N[C@H](Cc1cccnc1)C(=O)O
# What was measured:
# [1] = tested on: LNCaP-AR tumors; experiment: Histology and immunohistochemistry of treated tumors (TUNEL, AR, Ki67); format: in vivo, mice; conditions: for TUNEL staining (cell death): tumors on days three and seven post-VTP (FIG. 5B)
# Procedure: (§1) (v) Histology and immunohistochemistry: All tumor specimens were fixed in 10% buffered formalin (Fisher Scientific, Pittsburgh, Pa.), processed routinely, embedded in paraffin, sectioned at 5-micron thickness, and stained with hematoxylin-eosin (H&E). Immunohistochemistry (IHC) of tumors was performed on 5 micron formalin-fixed paraffin embedded (FFPE) section following heat induced epitope retrieval (HIER) in a buffer at pH 9.0. AR staining with anti-AR antibody (at 0.66 μg/ml, Abcam, Cambridge, Mass.) and TUNEL staining for cell death with terminal deoxynucleotidyl transferase dUTP nick-end labeling (Roche Diagnostics, Indianapolis, Ind.) was performed using Discovery XT processor (Ventana Medical Systems, Inc., Tucson, Ariz.) at the Molecular Cytology core facility. IHC staining for CD31 and Ki67 markers was performed on FFPE sections at the Laboratory of Comparative Pathology on a Leica Bond RX automated stainer (Leica Biosystems, Buffalo Grove, Ill.). […] For quantification of CD31, Ki67 and TUNEL staining, whole slide digital images were generated on a scanner (Pannoramic 250 Flash III, 3DHistech, 20×/0.8NA objective, Budapest, Hungary) at a resolution of 0.2431 μm per pixel. Staining quantification was performed with QuPath 0.1.2 software (Centre for Cancer Research & Cell Biology, Queen's University Belfast, UK). […] For CD31 and TUNEL, the positive area, defined as the ratio of DAB stained pixels to total ROI area, was measured using the positive pixel count algorithm. For Ki67, the ratio (percentage) of cells with positive nuclear staining to total cell number was measured with the positive cell detection algorithm. […]
# (§2) (vii) Statistical analysis: Two-way ANOVA test using GraphPad Prism (GraphPad Software, La Jolla, Calif.) was used for therapeutic efficacy in affecting tumor growth, and One-way ANOVA for PSA and a Mann-Whitney test for CD31, Ki67 or TUNEL staining quantification. […]
# [2] = tested on: CD31; experiment: CD31 IHC staining of tumors (vessel quantification); format: in vivo, mice
# Procedure: as §1, with “9.0.” for “9.0. AR staining with anti-AR antibody (at 0.66 μg/ml, Abcam, Cambridge, Mass.) and TUNEL staining for cell death with terminal deoxynucleotidyl transferase dUTP nick-end labeling (Roche Diagnostics, Indianapolis, Ind.) was performed using Discovery XT processor (Ventana Medical Systems, Inc., Tucson, Ariz.) at the Molecular Cytology core facility. IHC staining for CD31 and Ki67 markers was performed on FFPE sections at the Laboratory of Comparative Pathology on a Leica Bond RX automated stainer (Leica Biosystems, Buffalo Grove, Ill.).”
# as §2
# [3] = tested on: total PSA (tPSA); experiment: Serum total PSA in mice bearing LNCaP-AR tumors; format: in vivo; conditions: one, three, or seven days post-WST11 VTP (FIG. 5A)
# Procedure: This assay measures free PSA and complexed PSA in an equimolar fashion [Ulmert et al., 2012; Mitrunen et al., 1995], and the cross-reactivity of PSA-ACT for free PSA is less than 0.2% [Pettersson et al., 1995]. The lower limits of detection are 0.1 ng/mL for both total PSA and free PSA. For detection, the 1235 automatic immunoassay system from Perkin-Elmer Life Sciences (Waltham, Mass.) was used.
# (vii) Statistical analysis: Two-way ANOVA test using GraphPad Prism (GraphPad Software, La Jolla, Calif.) was used for therapeutic efficacy in affecting tumor growth, and One-way ANOVA for PSA and a Mann-Whitney test for CD31, Ki67 or TUNEL staining quantification. Differences with p values<0.05 were considered statistically significant.
# To verify that AR activity was inhibited by the treatments, the levels of total PSA (tPSA) in serum of mice bearing LNCaP-AR tumors were measured. Serum tPSA values were determined in separate cohorts of mice at one, three, or seven days post-WST11 VTP (four, six or ten days post-degarelix).
# [4] = tested on: LNCaP-AR xenograft tumors; experiment: GSEA transcriptome analysis of LNCaP-AR xenografts following VTP; format: in vivo, SCID mice
# Procedure: (vi) GSEA for transcriptome analysis of LNCaP-AR xenografts following VTP treatment: LNCaP/AR xenografts were established in intact SCID mice by injecting 2 million cells as described previously [Chen et al., 2004] and, once established, were treated with VTP at 9 mg/kg WST11 followed by 753 nm illumination at 100 mW/cm^2 laser fluence. Tumors were collected at 3, 6, or 24 hours, 1 week and 8.5 weeks post VTP and RNA was isolated following the standard protocol using TRIzol (Fisher Scientific). Expression profiling was performed using Illumina HT-12 Expression BeadChip array and the data was analyzed using Partek Genomics Suite (Partek Inc., St. Louis, Mo.). The microarray data then underwent secondary analysis by GSEA [Subramanian et al., 2005] using gene sets from the Hallmark and C2, Canonical Pathways collections (Molecular Signature Databases v6.0 (MSigDB); Broad Institute at http site //software.broadinstitute.org/gsea/msigdb.GSEA| MSigDB. Accessed 19 Jun. 2017. Microarray data has been deposited in the National Center for Biotechnology Information Gene Expression Omnibus (GEO) (GSE109681). To identify potential druggable pathways active in PCa that could be exploited for combination therapy with VTP, we analyzed the transcriptome of LNCaP-AR xenograft tumors following acute response to VTP exposure. […]
# [5] = tested on: low-risk, localized PCa; conditions: cited from earlier work
smiles,measurement,setting,value
CC(=O)N[C@H](Cc1ccc2ccccc2c1)C(=O)N[C@H](Cc1ccc(Cl)cc1)C(=O)N[C@H](Cc1cccnc1)C(=O)N[C@@H](CO)C(=O)N[C@@H](Cc1ccc(NC(=O)[C@@H]2CC(=O)NC(=O)N2)cc1)C(=O)N[C@H](Cc1ccc(NC(N)=O)cc1)C(=O)N[C@@H](CC(C)C)C(=O)N[C@@H](CCCCNC(C)C)C(=O)N1CCC[C@H]1C(=O)N[C@H](C)C(N)=O [degarelix] (Ac-[d2Nal][dPhe(4-Cl)][d3Pal]S[Phe(4-NH2)](Dihydroorotyl(S))[dPhe(4-NHCONH2)]L[Lys(iPr)]P[dA]-NH2),Ki67 signal (tumor proliferation),"[1]; day 7 post-VTP, p<0.05 vs controls (FIG. 5C)",reduced Ki67 signal compared to controls
same,TUNEL staining (cell death),[1],little TUNEL staining
same,number of vessels in tumors by CD31 image analysis,"[2]; FIG. 6A, versus control group",appear to have fewer vessels
same,decrease in CD31 staining area compared to controls,"[2]; degarelix-treated n=11 vs control n=12, p<0.05 (FIG. 6B)",38%
same,fold changes of serum tPSA,[3],declined
"CCC1c2cc3[n-]c(c(CC(=O)OC)c4nc(cc5[n-]c(cc(n2)C1C)c(C(C)=O)c5C)C(C)C4CCC(=O)[O-])c(C(=O)NCCS(=O)(=O)[O-])c3C.[K+].[K+].[Pd+2] (centres unmarked) [WST11/VTP, Palladium 3^1-oxo-15-methoxycarbonylmethyl-rhodobacteriochlorin 13^1-(2-sulfoethyl) amide dipotassium salt]","gene sets related to hypoxia, HIF1A, and VEGFR pathways (GSEA)",[4]; three to six hours post-VTP treatment,statistically significant enrichments
same,AR signaling gene sets (GSEA),"[4]; three to six hours post-VTP, vs control mice",up-regulated
same,patients negative for cancer in follow up biopsies,"[5]; 6 months after prostate hemiablation, low-risk localized PCa",80.6%
same,HR of disease progression versus active surveillance,"[5]; at 24 months, 95% CI 0.24-0.46, p<0.0001",0.34
same,disease progression,"[5]; at 24 months, active surveillance 58%",28%
same,patients free of clinically significant cancer in the treated lobes,[5]; median follow-up of 68 months,82%
same,treated patients who avoided a need for subsequent radical therapy,[5]; median follow-up of 68 months,76%
same,TUNEL staining (cell death),[1],partial cell death characterized by large foci of TUNEL staining
same,fold changes of serum tPSA,[3],declined
